For one assay, the target named is CDK12/CycK (Homo sapiens, UniProt Q9NYV4). The experiment in a line: CDK12/CycK high ATP kinase assay (TR-FRET, 2 mM ATP). The format is biochemical. The note with it: 2 mM ATP (high ATP); median; read-out: CDK12/CyclinK, 2 mM ATP (high ATP), IC50-[mol/l] (median). As to the method:
In the context of the present invention, the term “IC50 CDK12 hATP” refers to the IC50 values obtained according to the assay described in this section (2.2) herein below, i.e. the IC50 values for the inhibition of CDK12 at high (2 mM) ATP.
CDK12/CycK-inhibitory activity of compounds of the present invention at 2 millimol/L adenosine-tri-phosphate (ATP) was quantified employing the TR-FRET (TR-FRET=Time Resolved Fluorescence Energy Transfer) based CDK12/CycK activity inhibition assay as described in the following paragraphs.
A complex of human recombinant CDK12 and human recombinant CycK (both N-terminally His-tagged, expression and purification as described above) was used as enzyme. As substrate for the kinase reaction biotinylated peptide biotin-Ahx-KFELLPTPPLSPSRRSGL (C-terminus in amid form) was used which can be purchased e.g. form the company Biosyntan (Berlin-Buch, Germany).
For the assay 50 nanoL of a 100 fold concentrated solution of the test compound in DMSO was pipetted into either a black low volume 384 well microtiter plate or a black 1536 well microtiter plate (both Greiner Bio-One, Frickenhausen, Germany), 2 microL of a solution of CDK12/CycK in aqueous assay buffer [25 millimol/L HEPES pH 7.5, 20 millimol/L MgCl2, 5 millimol/L β-glycerophosphate, 2 millimol/L EGTA, 1.0 millimol/L dithiothreitol, 0.01% (v/v) Nonidet-P40 (Sigma), 0.01% (w/v) bovine serum albumin] were added and the mixture was incubated for 15 min at 22° C. to allow pre-binding of the test compounds to the enzyme before the start of the kinase reaction. Then the kinase reaction was started by the addition of 3 microL of a solution ATP (3.33 millimol/L=>final conc. in the 5 microL assay volume is 2 millimol/L) and substrate (1.67 micromol/L=>final conc. in the 5 microL assay volume is 1 micromol/L) in assay buffer and the resulting mixture was incubated for a reaction time of 60 min at 22° C. The concentration of CDK12/CycK was adjusted depending of the activity of the enzyme lot and was chosen appropriate to have the assay in the linear range, typical concentrations were about 0.75 nanomol/L. The reaction was stopped by the addition of 3 microL of a solution of TR-FRET detection reagents (125 nanomol/L streptavidine-XL665 [Cisbio Bioassays, Codolet, France] and 0.67 nanomol/L anti-Phospho-c-Myc (Ser 62) (E1J4K)-antibody from Cell Signalling [#13748] and 2 nanomol/L LANCE EU-W1024 labeled anti-rabbit IgG antibody [Perkin-Elmer, product no. 0083]) in an aqueous EDTA-solution (133 millimol/L EDTA, 0.27% (w/v) bovine serum albumin in 66.7 millimol/L HEPES pH 7.5).
(§1) The resulting mixture was incubated 1 h at 22° C. to allow the formation of complex between the phosphorylated biotinylated peptide and the detection reagents. Subsequently the amount of phosphorylated substrate was evaluated by measurement of the resonance energy transfer from the Eu-chelate to the streptavidine-XL. Therefore, the fluorescence emissions at 620 nm and 665 nm after excitation at 350 nm was measured in a TR-FRET reader, e.g. a Pherastar FS (BMG Labtechnologies, Offenburg, Germany) or a Viewlux (Perkin-Elmer). The ratio of the emissions at 665 nm and at […] was taken as the measure for the amount of phosphorylated substrate. The data were normalised (enzyme reaction without inhibitor=0% inhibition, all other assay components but no enzyme=100% inhibition).

The target of the next assay is T1, CDK2/CycE (Homo sapiens, UniProt P24941).
T1 construct: purchased ProQinase GmbH (Freiburg, Germany); host or cells: insect cells (Sf9)
The experiment in a line: CDK2/CycE kinase assay (TR-FRET, 2 mM ATP). In kind it is biochemical. The note with it: 2 mM ATP (high ATP); median; read-out: CDK2/CyclinE, 2 mM ATP (high ATP), IC50 (median).
From the text: CDK2/CycE-inhibitory activity of compounds of the present invention was quantified employing the CDK2/CycE TR-FRET assay as described in the following paragraphs.
Recombinant fusion proteins of GST and human CDK2 and of GST and human CycE, expressed in insect cells (Sf9) and purified by Glutathion-Sepharose affinity chromatography, were purchase from ProQinase GmbH (Freiburg, Germany). As substrate for the kinase reaction biotinylated peptide biotin-Ttds-YISPLKSPYKISEG (C-terminus in amid form) was used which can be purchased e.g. form the company JERINI peptide technologies (Berlin, Germany).
For the assay 50 nanoL of a 100 fold concentrated solution of the test compound in DMSO was pipetted into a black low volume 384 well microtiter plate or a black 1536 well microtiter plate (both Greiner Bio-One, Frickenhausen, Germany), 2 microL of a solution of CDK2/CycE in aqueous assay buffer [50 millimol/L Tris/HCl pH 8.0, 10 millimol/L MgCl2, 1.0 millimol/L dithiothreitol, 0.1 millimol/L sodium ortho-vanadate, 0.01% (v/v) Nonidet-P40 (Sigma)] were added and the mixture was incubated for 15 min at 22° C. to allow pre-binding of the test compounds to the enzyme before the start of the kinase reaction. Then the kinase reaction was started by the addition of 3 microL of a solution of adenosine-tri-phosphate (ATP, 3.33 millimol/L=>final conc. in the 5 microL assay volume is 2 millimol/L) and substrate (1.25 micromol/L=>final conc. in the 5 microL assay volume is 0.75 micromol/L) in assay buffer and the resulting mixture was incubated for a reaction time of 25 min at 22° C. The concentration of CDK2/CycE was adjusted depending of the activity of the enzyme lot and was chosen appropriate to have the assay in the linear range, typical concentrations were in the range of 10 ng/ml. The reaction was stopped by the addition of 3 microL of a solution of TR-FRET detection reagents (0.333 micromol/L streptavidine-XL665 [Cisbio Bioassays, Codolet, France] and 1.67 nanomol/L anti-RB(pSer807/pSer8l 1)-antibody from BD Pharmingen [#558389] and 2 nanomol/L LANCE EU-W1024 labeled anti-mouse IgG antibody [Perkin-Elmer, product no. AD0077, as an alternative a Terbium-cryptate-labeled anti-mouse IgG antibody from Cisbio Bioassays can be used]) in an aqueous EDTA-solution (167 millimol/L EDTA, 0.2% (w/v) bovine serum albumin in 100 millimol/L HEPES pH 7.5).
as §1, with “Pherastar” for “Pherastar FS”
For orientation: TR-FRET usually uses a lanthanide donor and a delayed reading to cut background.

CDK12/CycK, sequence (Q9NYV4 with tags, fused parts or gaps): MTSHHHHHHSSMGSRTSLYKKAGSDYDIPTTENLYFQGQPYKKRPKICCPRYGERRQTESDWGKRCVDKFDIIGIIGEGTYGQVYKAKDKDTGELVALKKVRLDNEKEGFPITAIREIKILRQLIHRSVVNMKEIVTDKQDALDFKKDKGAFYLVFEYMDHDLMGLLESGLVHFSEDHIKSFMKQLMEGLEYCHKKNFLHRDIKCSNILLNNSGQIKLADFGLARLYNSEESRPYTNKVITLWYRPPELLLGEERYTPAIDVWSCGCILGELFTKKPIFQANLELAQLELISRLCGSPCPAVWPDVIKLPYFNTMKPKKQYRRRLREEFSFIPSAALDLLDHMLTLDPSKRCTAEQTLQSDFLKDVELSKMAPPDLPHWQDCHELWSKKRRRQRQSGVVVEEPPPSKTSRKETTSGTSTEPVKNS
CDK12/CycK, sequence (O75909 1-300 partner limits assumed): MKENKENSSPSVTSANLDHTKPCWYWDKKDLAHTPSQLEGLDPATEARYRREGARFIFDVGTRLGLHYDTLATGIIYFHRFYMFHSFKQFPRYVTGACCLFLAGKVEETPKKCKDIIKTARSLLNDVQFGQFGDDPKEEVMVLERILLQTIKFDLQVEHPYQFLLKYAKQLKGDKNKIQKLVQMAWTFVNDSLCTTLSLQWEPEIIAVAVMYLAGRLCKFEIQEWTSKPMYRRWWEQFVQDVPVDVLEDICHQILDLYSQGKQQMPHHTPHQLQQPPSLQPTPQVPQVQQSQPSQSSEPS

Turning to `O=S1(=O)CCN(c2nc(NCc3nc4ccccc4[nH]3)n3ncc(Br)c3n2)CC1` [Example 166, 4-(4-{[(1H-benzimidazol-2-yl)methyl]amino}-8-bromopyrazolo[1,5-a][1,3,5]triazin-2-yl)-1 lambda^6-thiomorpholine-1,1-dione], the IC50 at CDK12/CycK is 6.09 µM; on CDK2/CycE, 4.7 µM.

As to `C[C@@H]1CN(c2nc(NCc3nnc(-c4ccccc4)[nH]3)n3ncc(Br)c3n2)C[C@H](C)N1C` [Example 125, 8-bromo-N-[(5-phenyl-4H-1,2,4-triazol-3-yl)methyl]-2-[(3R,5S)-3,4,5-trimethylpiperazin-1-yl]pyrazolo[1,5-a][1,3,5]triazin-4-amine], the IC50 on CDK12/CycK turned out to be 10.9 µM; on CDK2/CycE it was 13.2 µM.

Turning to `COc1ccc2[nH]c(CNc3nc(N4CCN(C)CC4)nc4c(Br)cnn34)nc2c1` [Example 161, 8-bromo-N-[(5-methoxy-1H-benzimidazol-2-yl)methyl]-2-(4-methylpiperazin-1-yl)pyrazolo[1,5-a][1,3,5]triazin-4-amine], the IC50 at CDK12/CycK was found to be 9.61 µM.

`Brc1cnn2c(NCc3nc4ccccc4[nH]3)nc(N3CCC3)nc12` [Example 143, 2-(azetidin-1-yl)-N-[(1H-benzimidazol-2-yl)methyl]-8-bromopyrazolo[1,5-a][1,3,5]triazin-4-amine]: the IC50 at CDK12/CycK was above 20 µM; at CDK2/CycE, 17.8 µM.

`Fc1cccc2[nH]c(CNc3nc(N4CCOCC4)nc4c(Br)cnn34)nc12` [Example 97, 8-bromo-N-[(4-fluoro-1H-benzimidazol-2-yl)methyl]-2-(morpholin-4-yl)pyrazolo[1,5-a][1,3,5]triazin-4-amine]: the values for the IC50 on CDK12/CycK and at CDK2/CycE were 0.788 µM and 3.24 µM, respectively.

Consider `NCCc1ccc2[nH]c(CNc3nc(N4CCOCC4)nc4c(Br)cnn34)nc2c1.O=CO` [Example 113, formic acid-N-{[5-(2-aminoethyl)-1H-benzimidazol-2-yl]methyl}-8-bromo-2-(morpholin-4-yl)pyrazolo[1,5-a][1,3,5]triazin-4-amine (1/1)], for which the IC50 at CDK12/CycK was determined as 1.71 µM; on CDK2/CycE, 1.2 µM.

As for `CN1CCN(c2nc(NCc3nc4c(F)cccc4[nH]3)n3ncc(C4CC4)c3n2)CC1` [Example 165, 8-cyclopropyl-N-[(4-fluoro-1H-benzimidazol-2-yl)methyl]-2-(4-methylpiperazin-1-yl)pyrazolo[1,5-a][1,3,5]triazin-4-amine], the IC50 was 10.2 µM at CDK12/CycK and above 20 µM on CDK2/CycE.

As for `C[C@H]1CN(c2nc(NCc3nnc(-c4ccccc4)[nH]3)n3ncc(Br)c3n2)CCN1C.O=CO` [Example 122, 8-bromo-2-[(3S)-3,4-dimethylpiperazin-1-yl]-N-[(5-phenyl-4H-1,2,4-triazol-3-yl)methyl]pyrazolo[1,5-a][1,3,5]triazin-4-amine formate], the IC50 on CDK12/CycK is above 20 µM; on CDK2/CycE, 6.72 µM.

With `Brc1cnn2c(NCc3nc4ccccc4[nH]3)nc(N3CCNCC3)nc12` [Example 128, N-[(1H-benzimidazol-2-yl)methyl]-8-bromo-2-(piperazin-1-yl)pyrazolo[1,5-a][1,3,5]triazin-4-amine], the IC50 stood at 10.9 µM on CDK12/CycK and 9.63 µM at CDK2/CycE.

With `Brc1cnn2c(NCc3nc4ccccc4[nH]3)nc(N3CCOCC3C3CC3)nc12` (stereo not shown) [Example 117, N-(1H-benzimidazol-2-ylmethyl)-8-bromo-2-(3-cyclopropylmorpholin-4-yl)pyrazolo[1,5-a][1,3,5]triazin-4-amine], the IC50 at CDK12/CycK was 4.82 µM; on CDK2/CycE it was 4.66 µM.

For `CC(C)c1cnn2c(NCc3nc4ccccc4[nH]3)nc(N3CCOC[C@H]3C)nc12` [Example 7, N-[(1H-benzimidazol-2-yl)methyl]-2-[(3R)-3-methylmorpholin-4-yl]-8-(propan-2-yl)pyrazolo[1,5-a][1,3,5]triazin-4-amine], the IC50 at CDK12/CycK turned out to be 10.2 µM; at CDK2/CycE, 6.57 µM.

For the compound `Fc1ccc(-c2nnc(CNc3nc(N4CCOCC4)nc4c(Br)cnn34)[nH]2)cc1F` [Example 99, 8-bromo-N-{[5-(3,4-difluorophenyl)-4H-1,2,4-triazol-3-yl]methyl}-2-(morpholin-4-yl)pyrazolo[1,5-a][1,3,5]triazin-4-amine], the IC50 was found to be 1.54 µM on CDK12/CycK and 1.77 µM on CDK2/CycE.

For `C[C@H]1CCCCN1c1nc(NCc2nc3ccccc3[nH]2)n2ncc(Br)c2n1` [Example 141, N-[(1H-benzimidazol-2-yl)methyl]-8-bromo-2-[(2S)-2-methylpiperidin-1-yl]pyrazolo[1,5-a][1,3,5]triazin-4-amine], the results for the IC50 at CDK12/CycK and at CDK2/CycE were 1.31 µM and 0.707 µM, respectively.

For `CC(C)c1cnn2c(NCc3nc4ccccc4[nH]3)nc(N3CCCOCC3)nc12` [Example 8, N-[(1H-benzimidazol-2-yl)methyl]-2-(1,4-oxazepan-4-yl)-8-(propan-2-yl)pyrazolo[1,5-a][1,3,5]triazin-4-amine], the IC50 on CDK12/CycK was above 19.8 µM; at CDK2/CycE, 11.1 µM.

As to `CCN1CCN(c2nc(NCc3nc4ccccc4[nH]3)n3ncc(Br)c3n2)CC1` [Example 137, N-[(1H-benzimidazol-2-yl)methyl]-8-bromo-2-(4-ethylpiperazin-1-yl)pyrazolo[1,5-a][1,3,5]triazin-4-amine], the IC50 on CDK12/CycK was found to be 13 µM.

(Values after patent US20230117034A1, “PYRAZOLOTRIAZINES” (Bayer Aktiengesellschaft, priority 2019, published 2023).)
